Test results from ChEMBL document CHEMBL1212926, “Design of potent inhibitors of human RAD51 recombinase based on BRC motifs of BRCA2 protein: modeling and experimental validation of a chimera peptide” (J Med Chem, 2010).
Activity calls are given as the source filed them. No cut-off for these calls is given here. Where a SMILES comes first, the peptide text is derived from it.

Key:
[1] = target: T1, DNA repair protein RAD51 homolog 1 (Homo sapiens) (UniProt Q06609); assay: Binding affinity to human RAD51 by isothermal titration calorimetry
T1 sequence (whole entry): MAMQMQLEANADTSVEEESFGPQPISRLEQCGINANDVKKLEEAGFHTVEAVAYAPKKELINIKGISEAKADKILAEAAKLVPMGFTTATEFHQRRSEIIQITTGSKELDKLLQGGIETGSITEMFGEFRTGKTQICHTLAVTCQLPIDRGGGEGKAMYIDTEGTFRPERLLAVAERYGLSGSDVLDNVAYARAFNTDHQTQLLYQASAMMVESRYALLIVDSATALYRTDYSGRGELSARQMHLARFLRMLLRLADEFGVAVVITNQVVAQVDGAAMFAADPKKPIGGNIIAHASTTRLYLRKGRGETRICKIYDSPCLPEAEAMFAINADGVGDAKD

[2] = target: T1, DNA repair protein RAD51 homolog 1 (Homo sapiens); assay: Binding affinity to human RAD51 at 40 uM by circular dichroism assay
[3] = target: T1, DNA repair protein RAD51 homolog 1 (Homo sapiens); assay: Inhibition of human RAD51-mediated 58-mer single-stranded DNA strand exchange activity at 5 to 15 uM after 1 hr by PAGE
[4] = target: T2, DNA repair protein RAD51 homolog 1 (Homo sapiens, UniProt Q06609); assay: Inhibition of human RAD51 assessed as dissociation of protein/single-stranded poly-(d-epsilonA) complex formation by fluorescence polarimetry
T2 sequence (Q06609 whole entry): T1 sequence (whole entry)

[5] = target: T2, DNA repair protein RAD51 homolog 1; assay: Inhibition of human RAD51 assessed as dissociation of protein/single-stranded oligo(AGT)12 complex formation by fluorescence polarimetry
[6] = target: T2, DNA repair protein RAD51 homolog 1; assay: Inhibition of human RAD51 assessed as concentration required for half dissociation of protein/single-stranded DNA complex formation by fluorescence polarimetry

Row | K [1] [×10⁵ /M] | Activity [2] | inhibition [3] | IC50 [4] [µM] | IC50 [5] [nM] | Ki [6] [nM] | Compound
1 | < 0.1 | Active | Active | – | – | – | CC[C@H](C)[C@H](NC(=O)[C@H](CCCCN)NC(=O)[C@@H](NC(=O)[C@H](CCCCN)NC(=O)[C@H](CCCCN)NC(=O)CNC(=O)[C@H](CO)NC(=O)[C@H](CO)NC(=O)[C@@H](NC(=O)[C@H](Cc1cnc[nH]1)NC(=O)[C@H](Cc1ccccc1)NC(=O)CN)[C@@H](C)O)C(C)C)C(=O)N[C@@H](C)C(=O)N[C@@H](CCCCN)C(=O)N[C@@H](CCC(=O)O)C(=O)N[C@@H](CO)C(=O)N[C@@H](CC(C)C)C(=O)N[C@@H](CC(=O)O)C(=O)N[C@@H](CCCCN)C(=O)N[C@H](C(=O)N[C@@H](CCCCN)C(=O)N[C@@H](CC(N)=O)C(=O)N[C@@H](CC(C)C)C(=O)N[C@@H](Cc1ccccc1)C(=O)O)C(C)C
2 | 3.8 | Active | Active | 7 | 2700 | 6000 | CC[C@H](C)[C@H](NC(=O)[C@H](CCCCN)NC(=O)[C@@H](NC(=O)[C@H](CCCCN)NC(=O)[C@H](CCCCN)NC(=O)CNC(=O)[C@H](CO)NC(=O)[C@H](C)NC(=O)[C@@H](NC(=O)[C@H](Cc1ccc(O)cc1)NC(=O)[C@H](Cc1ccccc1)NC(=O)CN)[C@@H](C)O)C(C)C)C(=O)N[C@@H](C)C(=O)N[C@@H](CCCCN)C(=O)N[C@@H](CCC(=O)O)C(=O)N[C@@H](CO)C(=O)N[C@@H](CC(C)C)C(=O)N[C@@H](CC(=O)O)C(=O)N[C@@H](CCCCN)C(=O)N[C@H](C(=O)N[C@@H](CCCCN)C(=O)N[C@@H](CC(N)=O)C(=O)N[C@@H](CC(C)C)C(=O)N[C@@H](Cc1ccccc1)C(=O)O)C(C)C
3 | – | – | Active | 1.5 | 1050 | 750 | CC[C@H](C)[C@H](NC(=O)[C@H](CCCCN)NC(=O)[C@@H](NC(=O)[C@H](CCCCN)NC(=O)[C@H](CCCCN)NC(=O)CNC(=O)[C@H](CO)NC(=O)[C@H](C)NC(=O)[C@@H](NC(=O)[C@H](Cc1ccc(O)cc1)NC(=O)[C@H](Cc1ccccc1)NC(=O)CN)[C@@H](C)O)C(C)C)C(=O)N[C@@H](CO)C(=O)N[C@@H](CCCCN)C(=O)N[C@@H](CCC(=O)O)C(=O)N[C@@H](CO)C(=O)N[C@@H](CC(C)C)C(=O)N[C@@H](CC(=O)O)C(=O)N[C@@H](CCCCN)C(=O)N[C@H](C(=O)N[C@@H](CCCCN)C(=O)N[C@@H](CC(N)=O)C(=O)N[C@@H](Cc1ccccc1)C(=O)N[C@@H](Cc1ccccc1)C(=O)O)C(C)C (H-GFYTASGKKVKISKESLDKVKNFF-OH)
4 | – | Active | – | – | – | – | CC[C@H](C)[C@H](NC(=O)[C@H](CCCCN)NC(=O)[C@@H](NC(=O)[C@H](CCCCN)NC(=O)[C@H](CCCCN)NC(=O)CNC(=O)[C@H](CO)NC(=O)[C@H](C)NC(=O)[C@@H](NC(=O)[C@@H](N)Cc1cnc[nH]1)[C@@H](C)O)C(C)C)C(=O)N[C@@H](C)C(=O)N[C@@H](CCCCN)C(=O)N[C@@H](CCC(=O)O)C(=O)N[C@@H](CO)C(=O)N[C@@H](CC(C)C)C(=O)N[C@@H](CC(=O)O)C(=O)N[C@@H](CCCCN)C(=O)N[C@H](C(=O)N[C@@H](CCCCN)C(=O)N[C@@H](CC(N)=O)C(=O)N[C@@H](CC(C)C)C(=O)N[C@@H](Cc1ccccc1)C(=O)N[C@@H](CC(=O)O)C(=O)N[C@@H](CCC(=O)O)C(=O)O)C(C)C (H-HTASGKKVKIAKESLDKVKNLFDE-OH)
5 | 5.2 | Active | Active | 2.5 | 2000 | 1800 | CC[C@H](C)[C@H](NC(=O)[C@H](CCCCN)NC(=O)[C@@H](NC(=O)[C@H](CCCCN)NC(=O)[C@H](CCCCN)NC(=O)CNC(=O)[C@H](CO)NC(=O)[C@H](C)NC(=O)[C@@H](NC(=O)[C@H](Cc1cnc[nH]1)NC(=O)[C@H](Cc1ccccc1)NC(=O)CN)[C@@H](C)O)C(C)C)C(=O)N[C@@H](CO)C(=O)N[C@@H](CCCCN)C(=O)N[C@@H](CCC(=O)O)C(=O)N[C@@H](CO)C(=O)N[C@@H](CC(C)C)C(=O)N[C@@H](CC(=O)O)C(=O)N[C@@H](CCCCN)C(=O)N[C@H](C(=O)N[C@@H](CCCCN)C(=O)N[C@@H](CC(N)=O)C(=O)N[C@@H](CC(C)C)C(=O)N[C@@H](Cc1ccccc1)C(=O)O)C(C)C
6 | 7.3 | Active | Active | 5 | 2600 | 4200 | CC[C@H](C)[C@H](NC(=O)[C@H](CCCCN)NC(=O)[C@@H](NC(=O)[C@H](CCCCN)NC(=O)[C@H](CCCCN)NC(=O)CNC(=O)[C@H](CO)NC(=O)[C@H](C)NC(=O)[C@@H](NC(=O)[C@H](Cc1cnc[nH]1)NC(=O)[C@H](Cc1ccccc1)NC(=O)CN)[C@@H](C)O)C(C)C)C(=O)N[C@@H](C)C(=O)N[C@@H](CCCCN)C(=O)N[C@@H](CCC(=O)O)C(=O)N[C@@H](CO)C(=O)N[C@@H](CC(C)C)C(=O)N[C@@H](CC(=O)O)C(=O)N[C@@H](CCCCN)C(=O)N[C@H](C(=O)N[C@@H](CCCCN)C(=O)N[C@@H](CC(N)=O)C(=O)N[C@@H](Cc1ccccc1)C(=O)N[C@@H](Cc1ccccc1)C(=O)O)C(C)C
